Results reported in the supplement of paper PMC13380429.

Legend:
Settings in all cases: 72 h
U2OS [1] = assay: drug sensitivity score (DSS) for viability; higher = more toxic; extreme values may be limits of the assay
Caco-2 [2] = assay: as above
HepG2 [3] = assay: as above
Calu-3 [4] = assay: as above
Vero E6 [5] = assay: as above
U2OS [6] = assay: cell viability relative to DMSO; higher = less toxic
Caco-2 [7] = assay: as above
HepG2 [8] = assay: as above
Calu-3 [9] = assay: as above
Vero E6 [10] = assay: as above
U2OS [11] = assay: relative viability EC50 (midpoint between 100% and the lowest measured viability); higher = less toxic
Caco-2 [12] = assay: as above
HepG2 [13] = assay: as above
Calu-3 [14] = assay: as above
Vero E6 [15] = assay: as above

| Structure (SMILES) | drug sensitivity score (U2OS [1]) | drug sensitivity score (Caco-2 [2]) | drug sensitivity score (HepG2 [3]) | drug sensitivity score (Calu-3 [4]) | drug sensitivity score (Vero E6 [5]) | cell viability (U2OS [6]; 1 nM) [%] | cell viability (U2OS [6]; 10 nM) [%] | cell viability (U2OS [6]; 100 nM) [%] | cell viability (U2OS [6]; 1000 nM) [%] | cell viability (U2OS [6]; 10000 nM) [%] | cell viability (Caco-2 [7]; 1 nM) [%] | cell viability (Caco-2 [7]; 10 nM) [%] | cell viability (Caco-2 [7]; 100 nM) [%] | cell viability (Caco-2 [7]; 1000 nM) [%] | cell viability (Caco-2 [7]; 10000 nM) [%] | cell viability (HepG2 [8]; 1 nM) [%] | cell viability (HepG2 [8]; 10 nM) [%] | cell viability (HepG2 [8]; 100 nM) [%] | cell viability (HepG2 [8]; 1000 nM) [%] | cell viability (HepG2 [8]; 10000 nM) [%] | cell viability (Calu-3 [9]; 1 nM) [%] | cell viability (Calu-3 [9]; 10 nM) [%] | cell viability (Calu-3 [9]; 100 nM) [%] | cell viability (Calu-3 [9]; 1000 nM) [%] | cell viability (Calu-3 [9]; 10000 nM) [%] | cell viability (Vero E6 [10]; 1 nM) [%] | cell viability (Vero E6 [10]; 10 nM) [%] | cell viability (Vero E6 [10]; 100 nM) [%] | cell viability (Vero E6 [10]; 1000 nM) [%] | cell viability (Vero E6 [10]; 10000 nM) [%] | relative viability EC50 (U2OS [11]) [µM] | relative viability EC50 (Caco-2 [12]) [µM] | relative viability EC50 (HepG2 [13]) [µM] | relative viability EC50 (Calu-3 [14]) [µM] | relative viability EC50 (Vero E6 [15]) [µM] |
| --- | --- | --- | --- | --- | --- | --- | --- | --- | --- | --- | --- | --- | --- | --- | --- | --- | --- | --- | --- | --- | --- | --- | --- | --- | --- | --- | --- | --- | --- | --- | --- | --- | --- | --- | --- |
| NC(=O)CC[C@H](N)C(=O)O [L-glutamine] | 0 | 0 | 0 | 0 | 0 | 102 | 102 | 94.4 | 99.1 | 93 | 93.2 | 90.8 | 100 | 96.1 | 101 | 92.6 | 102 | 104 | 91.6 | 100 | 91.5 | 91.7 | 96.9 | 95 | 91.2 | 100 | 100 | 95 | 93 | 92.7 | > 10 | > 10 | > 10 | > 10 | > 10 |
| Cc1cccc(C)c1OCC(=O)N[C@@H](Cc1ccccc1)[C@@H](O)C[C@H](Cc1ccccc1)NC(=O)[C@H](C(C)C)N1CCCNC1=O [Lopinavir] | 0 | 0.3 | 0 | 0 | 0 | 99.5 | 95.2 | 103 | 94.1 | 96.5 | 95 | 101 | 100 | 101 | 83.7 | 101 | 87.1 | 103 | 105 | 95.4 | 95.4 | 84.9 | 92.7 | 93.9 | 89.2 | 93.3 | 100 | 100 | 100 | 104 | > 10 | > 10 | > 10 | > 10 | > 10 |
| O=C(O)CC[C@H]1CC[C@@](c2cc(F)ccc2F)(S(=O)(=O)c2ccc(Cl)cc2)CC1 [MK-0752] | 0 | 0 | 0 | 0 | 0 | 94.9 | 105 | 96 | 102 | 97.9 | 96.5 | 106 | 98.2 | 99.2 | 99.5 | 100 | 96.1 | 98.9 | 92.6 | 108 | 96.3 | 96.3 | 100 | 101 | 97.8 | 96 | 99.7 | 94.5 | 95.5 | 103 | > 10 | > 10 | > 10 | > 10 | > 10 |
| COc1ccc(CNCc2cccc3ccccc23)cc1 [ML133] | 0 | 0 | 0 | 0 | 0 | 104 | 94.9 | 100 | 98.9 | 97.5 | 92.5 | 95.6 | 98.5 | 99.9 | 88.3 | 97.8 | 108 | 101 | 110 | 112 | 101 | 101 | 102 | 104 | 94.6 | 91.2 | 100 | 94.1 | 99 | 101 | > 10 | > 10 | > 10 | > 10 | > 10 |
| CCCC(=O)Nc1cccc(NC(=O)c2ccccc2Br)c1 [ML161] | 0 | 0 | 0 | 0 | 0 | 95.3 | 97.7 | 95.8 | 98.8 | 94.2 | 93.6 | 95.5 | 89.6 | 96.6 | 94 | 91.6 | 98 | 94.9 | 94.2 | 103 | 95.4 | 101 | 89.2 | 101 | 105 | 100 | 96.1 | 103 | 98.9 | 97.7 | > 10 | > 10 | > 10 | > 10 | > 10 |
| CC(=O)N[C@H]1[C@@H](O)[C@H](O)[C@@H](CO)O[C@@H]1O [N-acetylmannosamine] | 0 | 0 | 0 | 0 | 0 | 95.6 | 101 | 105 | 103 | 105 | 102 | 99.6 | 100 | 107 | 104 | 108 | 96.7 | 110 | 105 | 100 | 106 | 100 | 94.7 | 102 | 111 | 97 | 95.9 | 92.1 | 92.8 | 108 | > 10 | > 10 | > 10 | > 10 | > 10 |
| O[C@@H](C[C@H]1c2ccccc2-c2cncn21)C1CCCCC1 [NLG919] | 0 | 0.4 | 0 | 0.1 | 0.7 | 93.1 | 93 | 94 | 96.7 | 90.7 | 97.6 | 97 | 102 | 95.8 | 86.3 | 108 | 95.9 | 102 | 93.5 | 94.1 | 106 | 111 | 92.7 | 105 | 85.6 | 97.3 | 98.5 | 93.3 | 89.8 | 84.2 | > 10 | > 10 | > 10 | > 10 | > 10 |
